Test results as given in ChEMBL document CHEMBL1201862, “PubChem BioAssay data set” (2004).
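Test compounds were applied to cells in 96-well plates for 48 hours at 5 doses. The concentration for 50% growth inhibition is given as GI50.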 The source made the active and inactive calls. No stated cut-off is given here; in the data, active = GI50 up to about 1.1 µM and inactive = higher.

What was measured:
Assay in all cases: NCI anticancer screen, dose series, 48 h
A549 = system: A549
EKVX = system: EKVX
HT-29 = system: HT-29
M14 = system: M14
MDA-MB-231 = system: MDA-MB-231
MOLT-4 = system: MOLT-4
NCI-H460 = system: NCI-H460
NCI-H522 = system: NCI-H522
NCI/ADR-RES = system: NCI/ADR-RES
OVCAR-8 = system: OVCAR-8
RXF 393 = system: RXF 393
SF-295 = system: SF-295
SK-MEL-5 = system: SK-MEL-5
SN12C = system: SN12C
SR = system: SR
T47D = system: T47D
UO-31 = system: UO-31
OVCAR-3 = system: OVCAR-3
OVCAR-5 = system: OVCAR-5
U-251 = system: U-251

| Structure (SMILES) | GI50 (A549) | GI50 (EKVX) | GI50 (HT-29) | GI50 (M14) | GI50 (MDA-MB-231) | GI50 (MOLT-4) | GI50 (NCI-H460) | GI50 (NCI-H522) | GI50 (NCI/ADR-RES) | GI50 (OVCAR-8) | GI50 (RXF 393) | GI50 (SF-295) | GI50 (SK-MEL-5) | GI50 (SN12C) | GI50 (SR) | GI50 (T47D) | GI50 (UO-31) | GI50 (OVCAR-3) | GI50 (OVCAR-5) | GI50 (U-251) |
| --- | --- | --- | --- | --- | --- | --- | --- | --- | --- | --- | --- | --- | --- | --- | --- | --- | --- | --- | --- | --- |
| Cc1cccc(Nc2nc(NNC(=O)Cc3ccccc3)nc(NNC(=O)c3ccncc3)n2)c1 | > 10 µM (inactive) | > 10 µM (inactive) | > 10 µM (inactive) | > 10 µM (inactive) | > 10 µM (inactive) | > 10 µM (inactive) | > 10 µM (inactive) | > 10 µM (inactive) | > 10 µM (inactive) | > 10 µM (inactive) | > 10 µM (inactive) | > 10 µM (inactive) | > 10 µM (inactive) | > 10 µM (inactive) | > 10 µM (inactive) | > 10 µM (inactive) | > 10 µM (inactive) |  |  |  |
| Oc1c2cc(Br)cc1CCc1cc(Br)cc(c1O)CC2 | 26.9 µM (inactive) |  | 15.6 µM (inactive) | 16.3 µM (inactive) | 14 µM (inactive) | 18 µM (inactive) | 18.5 µM (inactive) | 14.4 µM (inactive) | 21.6 µM (inactive) | 28.8 µM (inactive) | 20.2 µM (inactive) | 18.3 µM (inactive) | 13.6 µM (inactive) | 41.9 µM (inactive) | < 0.01 µM (active) | 38.8 µM (inactive) | 12.8 µM (inactive) | 20.2 µM (inactive) | 23.2 µM (inactive) | 23.6 µM (inactive) |
| O=c1ccn(CC2(CO)CC(Cc3ccccc3)C2)c(=O)[nH]1 (configuration not stated) | > 100 µM (inactive) | > 100 µM (inactive) | > 100 µM (inactive) |  | > 100 µM (inactive) | > 100 µM (inactive) | > 100 µM (inactive) | > 100 µM (inactive) | > 100 µM (inactive) | > 100 µM (inactive) | > 100 µM (inactive) | > 100 µM (inactive) | > 100 µM (inactive) | > 100 µM (inactive) | > 100 µM (inactive) | > 100 µM (inactive) | > 100 µM (inactive) | > 100 µM (inactive) | > 100 µM (inactive) | > 100 µM (inactive) |
| CN1CC=C(c2cccn2C)CC1 | > 100 µM (inactive) | > 100 µM (inactive) | > 100 µM (inactive) | > 100 µM (inactive) | > 100 µM (inactive) | > 100 µM (inactive) |  | > 100 µM (inactive) | > 100 µM (inactive) | > 100 µM (inactive) | > 100 µM (inactive) | > 100 µM (inactive) | > 100 µM (inactive) | > 100 µM (inactive) | > 100 µM (inactive) | > 100 µM (inactive) | > 100 µM (inactive) | > 100 µM (inactive) | > 100 µM (inactive) | > 100 µM (inactive) |
| NC[C@H]1Nc2ccccc2[C@@H](O)C1O (some centres not stated) | > 100 µM (inactive) | > 100 µM (inactive) | > 100 µM (inactive) | > 100 µM (inactive) | > 100 µM (inactive) | > 100 µM (inactive) | > 100 µM (inactive) |  | > 100 µM (inactive) | > 100 µM (inactive) | > 100 µM (inactive) | > 100 µM (inactive) | > 100 µM (inactive) | > 100 µM (inactive) | > 100 µM (inactive) | > 100 µM (inactive) | > 100 µM (inactive) | > 100 µM (inactive) | > 100 µM (inactive) | > 100 µM (inactive) |
| N#CC1=C(S)N(C2OC(CO)C(O)C(O)C2O)C(c2ccccc2)=CC1c1cccs1 (configuration not stated) | 20 µM (inactive) |  | 17 µM (inactive) | 33.3 µM (inactive) | 27.2 µM (inactive) | 22.7 µM (inactive) | 17.7 µM (inactive) | 18.1 µM (inactive) | > 100 µM (inactive) | 22.3 µM (inactive) | 20 µM (inactive) | 17.5 µM (inactive) | 14.1 µM (inactive) | 14.7 µM (inactive) | 23 µM (inactive) | 19.2 µM (inactive) | 48.8 µM (inactive) | 27.9 µM (inactive) | 51.1 µM (inactive) | 20 µM (inactive) |
